# In patent publication US11248243B2, “Process for the biological production of methacrylic acid and derivatives thereof” (MITSUBISHI CHEMICAL UK LIMITED, priority 2015, dated 2022):
# Experiments:
# [1] = biological target: T1, short chain acyl-CoA oxidase (ACX4) (Arabidopsis thaliana, UniProt Q96329); assay: Activity test of ACX4 cell free extract, HPLC analysis; format: biochemical; details: ACX4 cell free extract 0.8 mg/ml, isobutyryl-CoA 500 μM, FAD 10 μM, HEPES pH 7.5, 30° C., 30 min
# T1 construct: made in house; host or cells: E. coli BL21 (DE3) pLysS pET20b(+)::ACX4, cell free extract
# T1 sequence (Q96329 1-436): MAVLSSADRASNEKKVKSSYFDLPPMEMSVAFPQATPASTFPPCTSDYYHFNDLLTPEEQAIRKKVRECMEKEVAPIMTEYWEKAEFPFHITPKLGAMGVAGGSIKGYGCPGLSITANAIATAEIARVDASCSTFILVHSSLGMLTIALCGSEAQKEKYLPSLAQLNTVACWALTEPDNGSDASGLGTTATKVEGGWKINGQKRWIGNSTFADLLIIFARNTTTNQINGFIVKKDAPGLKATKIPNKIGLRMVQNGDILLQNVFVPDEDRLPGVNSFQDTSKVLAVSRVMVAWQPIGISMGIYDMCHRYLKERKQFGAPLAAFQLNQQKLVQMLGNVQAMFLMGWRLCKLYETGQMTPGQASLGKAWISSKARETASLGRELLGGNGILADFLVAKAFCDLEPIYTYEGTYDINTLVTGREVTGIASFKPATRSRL
# Protocol: To prepare a cell free extract of the ACX4 enzyme, one of the cell pellets that was prepared previously was re-suspended in HEPES (50 mM, pH 7.5) buffer (6 ml) that was supplemented with flavin adenine dinucleotide (FAD) at a final concentration of 10 μM. The re-suspended cells were then lysed in a Constant Systems One Shot cell disrupter. The lysate was centrifuged at 18,000 g for 15 min at 4° C. and the supernatant of this was further centrifuged at […] for 60 min at 4° C. The supernatant was concentrated in a VivaSpin Viva6 10,000 Molecular Weight Cut-Off centrifugal concentrator, centrifuging at 10,000 g at 18° C. until a six-fold volume reduction of the retentate. […] The total protein concentration in the retentate was determined using the BioRad DC protein assay kit, using bovine serum albumin as the protein standard. […]
# The activity test of ACX4 was performed in 1.5 ml micro-centrifuge tubes. […] The reaction was incubated at 30° C. in the 1.5 ml micro-centrifuge tube, with shaking at 250 rpm for 30 min and the final reaction product was analysed by analytical HPLC (FIG. 5). […]
# In order to confirm that the methacrylyl-CoA peak was genuine, and that it was not an isobutyryl-CoA peak with a shifted elution time, the sample was spiked with isobutyryl-CoA and analysed by HPLC again. […]
# acyl-CoA synthetase AcsA = details: published value, cited from earlier work
# [2] = biological target: T2, 4-hydroxybenzoyl-CoA thioesterase (4HBT) (Arthrobacter sp, UniProt Q04416); assay: Crude enzymatic assays of 4HBT cell free extract (DTNB, 412 nm); format: biochemical, Arthrobacter sp. strain SU; details: cell free protein extract 1 mg/ml
# T2 construct: made in house; host or cells: E. coli BL21 (DE3) pLysS pET20b(+)::4HBT, cell free extract
# T2 sequence (Q04416 whole entry): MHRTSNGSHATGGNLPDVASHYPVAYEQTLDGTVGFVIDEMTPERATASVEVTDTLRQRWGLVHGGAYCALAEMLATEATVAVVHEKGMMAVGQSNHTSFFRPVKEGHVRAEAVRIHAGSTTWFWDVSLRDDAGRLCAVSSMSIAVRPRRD
# Protocol: To prepare a cell free extract of the 4HBT enzyme, one of the cell pellets of E. coli BL21 (DE3) pLysS pET20b(+)::4HBT that was prepared previously was re-suspended in HEPES (50 mM, pH 7.5) assay buffer and lysed in a Constant Systems One Shot cell disrupter. The cell lysate was centrifuged at 18,000 g for 15 min at 4° C. and the supernatant of this was centrifuged at 57,750 g for a further 60 min at 4° C. This supernatant was washed using a VivaSpin Viva6 10,000 Molecular Weight Cut-Off centrifugal concentrator, centrifuging at 10,000 g at 18° C. until a six-fold volume reduction, followed by a six-fold re-dilution in the HEPES assay buffer and a further 6-fold volume reduction in the centrifugal concentrator. The total protein concentration of the cell free extracts from E. coli BL21 (DE3) pLysS pET20b(+)::4HBT overexpression cultures was performed using the BioRad DC assay kit, using bovine serum albumin as the protein standard. The same procedure was followed in order to prepare cell free extracts from a cell pellet of the E. coli BL21 (DE3) pLysS pET20b(+), the negative control strain.
# Crude enzymatic assays of 4HBT were performed in cuvettes (1 ml) containing cell free protein extract (1 mg·ml^−1), methacrylyl-CoA (approximately 100 μM), 5′5-dithiobis-(2-nitrobenzoic) acid (DTNB) (500 μM). Reactions were started by the addition of substrate and were monitored at 412 nm. […]
compound,measurement,setting,value
CC(C)C(=O)SCCNC(=O)CCNC(=O)[C@H](O)C(C)(C)COP(=O)(O)OP(=O)(O)OC[C@H]1O[C@@H](n2cnc3c(N)ncnc32)[C@H](O)[C@@H]1OP(=O)(O)O [isobutyryl-CoA],oxidation of substrate by ACX4,[1],oxidises
CC(C)C(=O)O [isobutyric acid],turnover number (kcat),acyl-CoA synthetase AcsA,10.6 s⁻¹
same,Km,acyl-CoA synthetase AcsA; read-out: Michaelis constant (Km),140 µM
C=C(C)C(=O)SCCNC(=O)CCNC(=O)[C@H](O)C(C)(C)COP(=O)(O)OP(=O)(O)OC[C@H]1O[C@@H](n2cnc3c(N)ncnc32)[C@H](O)[C@@H]1OP(=O)(O)O [methacrylyl-CoA],substrate selectivity of 4HBT,[2]; methacrylyl-CoA versus isobutyryl-CoA,selectivity for methacrylyl-CoA over isobutyryl-CoA
same,hydrolysis of substrate by 4HBT,"[2]; substrate approximately 100 μM, DTNB 500 μM",catalysed the hydrolysis
